Test results as given in ChEMBL document CHEMBL3779823, “Structure of amyloid oligomers and their mechanisms of toxicities: Targeting amyloid oligomers using novel therapeutic approaches” (2016).

Tested on: Mus musculus
Assay: Reduction in Abeta oligomers levels in Tg2576 mouse administered for 4 weeks
Assay type: functional

## NS(=O)(=O)c1cc(C(=O)O)c(NCc2ccco2)cc1Cl [FUROSEMIDE]
  inhibition (INH): 30%
